# In patent publication US20230086833A1, “DEFIBROTIDE TREATMENT FOR THE PREVENTION OF ORGAN REJECTION AND INJURY” (Jazz Pharmaceuticals Ireland Limited, priority 2020, published 2023):
# System: autologous dog kidney transplant model for IRI
# Test: Autologous dog kidney transplant model for ischaemia reperfusion injury (IRI)
# Type: in vivo
# Description: An autologous dog kidney transplant model for IRI was developed (FIG. 1). The right kidney was removed from a dog at day 0 of the study and was exposed to cold ischemia for 32 hours. After exposure to cold ischemia, the right kidney developed IRI. Subsequently, in an autotransplant, the right kidney was implanted, and the left kidney was removed. Defibrotide was administered to the dog prior to transplant and after transplant four times per day for 7 days at doses of 3 mg/kg, 10 mg/kg, or 25 mg/kg. Clinical endpoints were evaluated, including bleeding at the anastomosis site, coagulation, renal function labs, serum creatinine, blood urea nitrogen (BUN), histopathology at sacrifice, and the measurement of biomarkers, including endothelin-1, Kim-1, ICAM-1, E-selectin, t-PA, PAI-1, Thrombomodulin, IL-6, TNF-α, MCP-1, and A2M.
# The gross dog kidney morphology was evaluated at the termination of the study.
# The creatinine level, a marker of renal function, was measured pre-transplant and post-transplant after treatment with saline control, 3 mg/kg, 10 mg/kg, or 25 mg/kg of defibrotide. […] Each curve represents a different dog.
substance,measurement,setting,value
defibrotide,"severity of hemorrhage after IRI (FIG. 2, dose response)","after higher doses of defibrotide, saline control",the severity of hemorrhage lessened
same,"creatinine levels (marker of renal function, FIG. 3)","after six days of defibrotide, 3, 10 or 25 mg/kg, post-transplant",decreased to levels just above normal
same,"hemorrhage, gross dog kidney morphology at the termination of the study","higher doses of defibrotide (3, 10 or 25 mg/kg, four times per day for 7 days), kidney exposed to cold ischemia for 32 hours",Minimal hemorrhage
same,renal function post IRI,"higher doses of defibrotide, after transplant",improved renal function
